From publication PMC5358098 (ACS chemical neuroscience, 2016) come the findings set out here.

Test [1] deals with CB1R (Mus musculus, UniProt P47746).
In test [2] the target is CB1R (Homo sapiens, UniProt P21554). The experiment in a line: cell-based. The format is cell-based. Conditions: read-out: Emax (% cAMP inhibition), agonist alone.
Sequence of CB1R (Homo sapiens, UniProt P21554) (P21554 whole entry): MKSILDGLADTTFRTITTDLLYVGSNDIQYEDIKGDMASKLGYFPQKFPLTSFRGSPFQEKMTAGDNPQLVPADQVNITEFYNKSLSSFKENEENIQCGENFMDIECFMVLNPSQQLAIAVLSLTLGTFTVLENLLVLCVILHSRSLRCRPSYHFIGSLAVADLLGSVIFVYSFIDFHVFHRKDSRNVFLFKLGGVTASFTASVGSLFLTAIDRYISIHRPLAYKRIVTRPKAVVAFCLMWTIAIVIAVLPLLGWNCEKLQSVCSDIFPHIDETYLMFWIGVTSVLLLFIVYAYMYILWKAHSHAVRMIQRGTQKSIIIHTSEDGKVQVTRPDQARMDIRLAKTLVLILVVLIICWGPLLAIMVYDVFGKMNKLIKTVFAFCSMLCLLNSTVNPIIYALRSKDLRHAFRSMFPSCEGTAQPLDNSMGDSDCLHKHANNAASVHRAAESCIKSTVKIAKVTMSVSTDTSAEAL

Sequence of CB1R (Mus musculus, UniProt P47746) (P47746 whole entry): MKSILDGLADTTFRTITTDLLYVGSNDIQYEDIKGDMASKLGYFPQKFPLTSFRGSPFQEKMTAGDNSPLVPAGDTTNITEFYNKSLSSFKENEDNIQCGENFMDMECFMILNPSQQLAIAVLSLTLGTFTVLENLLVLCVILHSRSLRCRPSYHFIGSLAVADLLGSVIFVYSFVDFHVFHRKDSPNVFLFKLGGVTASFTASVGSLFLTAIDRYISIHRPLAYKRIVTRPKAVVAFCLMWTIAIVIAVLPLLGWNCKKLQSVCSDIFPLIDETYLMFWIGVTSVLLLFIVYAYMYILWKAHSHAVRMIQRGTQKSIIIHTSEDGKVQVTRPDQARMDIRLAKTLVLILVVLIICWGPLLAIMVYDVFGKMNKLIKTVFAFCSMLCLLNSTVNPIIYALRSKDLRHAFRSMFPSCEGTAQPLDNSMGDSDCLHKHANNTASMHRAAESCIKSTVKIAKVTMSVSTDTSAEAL

As to `CCCCCCC(C)(C)c1ccc([C@@H]2C[C@H](O)CC[C@H]2CCCO)c(O)c1` [CP55,940, 2-[(1R,2R,5R)-5-hydroxy-2-(3-hydroxypropyl)cyclohexyl]-5-(2-methyloctan-2-yl)phenol], the “CB1R internalization, agonist alone” value at CB1R [1] is reported as “sustained CB1R internalization beginning at 30 min”. For the same molecule, the maximal response (Emax) (in general, the maximal effect, on the per cent scale that the assay sets) at CB1R [2] was 106 ± 11.4%.
